Here are results for 27 molecules from PubChem BioAssay AID651630 (Sanford-Burnham Center for Chemical Genomics, 2012).

Active and inactive are the calls of the source.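 The calls were made as follows: active = lipid-stain IC50 at or below a set limit, with nuclear-stain toxicity IC50 at least five times higher; inactive = the rest.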 Bounds are passed on as bounds.

For one experiment, the system named is DAPI. As to the kind of experiment: TAG lipid buildup inhibition with viability readout – cell-based, panel, Nile Red and DAPI fluorescence, H9c2, dose response (AID 651630).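 Also: cells exposed to compound overnight before fixation and staining.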 The following applies: H9c2 cells, DAPI nuclear fluorescence (cytotoxicity counter-readout), oleic acid.
For the next experiment, the system named is TAG. The description is as above. As to conditions: H9c2 cells, Nile Red TAG fluorescence, oleic acid.

Regarding `CCOC(=O)c1[nH]c(C)c(C(=O)Nc2ccccc2C)c1C`, the IC50 cytotoxicity (DAPI nuclear signal decrease) in the experiment with DAPI (mean of runs) is > 25 µM (inactive); in the experiment on DAPI (run 1) it was greater than 25 µM; with DAPI (run 2), greater than 25 µM. The IC50 in the experiment on TAG (mean of runs) was > 25 µM (inactive); with TAG (run 1), greater than 25 µM; with TAG (run 2), greater than 25 µM.

Regarding `COc1cc(C)c2sc3ccccc3c(=O)c2c1NCCN(C)C`, the values for the IC50 cytotoxicity (DAPI nuclear signal decrease) in the experiment with DAPI (mean of runs), in the experiment on DAPI (run 1) and in the experiment with DAPI (run 2) were > 25 µM (inactive), greater than 25 µM and greater than 25 µM, respectively. Also, the half-maximal inhibitory concentration (IC50) was 9.19 µM with TAG (mean of runs), 7.48 µM in the experiment with TAG (run 1) and 10.9 µM with TAG (run 2).

In the case of `C#CCN(C[C@@H]1[C@@H](OC(=O)NCC2CCCCC2)[C@@H](OC(=O)NCC2CCCCC2)CN(C(=O)OC(C)C)N1C(=O)OC(C)C)S(=O)(=O)c1ccc(C)cc1`, the values for the IC50 cytotoxicity (DAPI nuclear signal decrease) in the experiment on DAPI (mean of runs), with DAPI (run 1) and with DAPI (run 2) were > 25 µM (inactive), greater than 25 µM and greater than 25 µM, respectively. Moreover, the IC50 with TAG (mean of runs) is 10.6 µM; with TAG (run 1) it was 10.1 µM; in the experiment on TAG (run 2), 11.2 µM.

For the molecule `CNCCCN1c2ccccc2CCc2ccccc21`, the IC50 cytotoxicity (DAPI nuclear signal decrease) with DAPI (mean of runs) was > 25 µM (inactive); in the experiment on DAPI (run 1), greater than 25 µM; in the experiment on DAPI (run 2), greater than 25 µM. Moreover, the IC50 is > 25 µM (inactive) in the experiment on TAG (mean of runs), greater than 25 µM with TAG (run 1) and greater than 25 µM in the experiment on TAG (run 2).

For the molecule `O=C1c2ccccc2C(=O)c2c1ccc(C(=O)N1CCCCC1)c2NCCO`, the IC50 cytotoxicity (DAPI nuclear signal decrease) in the experiment on DAPI (run 1) and in the experiment on DAPI (run 2) was greater than 25 µM in each case. Also, the 50% inhibitory concentration (IC50) with TAG (mean of runs) was 3.42 µM; in the experiment with TAG (run 1) it was 3.47 µM; in the experiment on TAG (run 2), 3.38 µM.

Turning to `Nc1ccccc1C#Cc1ccccc1`, the IC50 cytotoxicity (DAPI nuclear signal decrease) in the experiment on DAPI (mean of runs) is > 25 µM (inactive); in the experiment with DAPI (run 1), greater than 25 µM; in the experiment on DAPI (run 2) it was greater than 25 µM. Also, the IC50 is 10.9 µM with TAG (mean of runs), 8.79 µM with TAG (run 1) and 13.1 µM in the experiment on TAG (run 2).

Turning to `COc1cc2c(c(OC)c1OC)-c1ccc(SC)c(=O)cc1C(NC=O)CC2` (stereo unspecified), the IC50 cytotoxicity (DAPI nuclear signal decrease) was > 25 µM (inactive) with DAPI (mean of runs), greater than 25 µM in the experiment on DAPI (run 1) and greater than 25 µM in the experiment on DAPI (run 2). In addition, the IC50 is > 25 µM (inactive) with TAG (mean of runs), greater than 25 µM in the experiment on TAG (run 1) and greater than 25 µM in the experiment with TAG (run 2).

For the molecule `COc1cc(OC)cc(C(=O)N2CC(=O)Nc3ccccc32)c1`, the IC50 cytotoxicity (DAPI nuclear signal decrease) in the experiment on DAPI (mean of runs) was > 25 µM (inactive); with DAPI (run 1), greater than 25 µM; in the experiment on DAPI (run 2), greater than 25 µM. Also, the figures for the IC50 in the experiment with TAG (mean of runs), in the experiment with TAG (run 1) and in the experiment with TAG (run 2) were > 25 µM (inactive), greater than 25 µM and greater than 25 µM, respectively.

As for `CCC[C@@H](CN[C@@H](CNC)[C@H](C)CC)NCC1CCC(C(C)(C)C)CC1` (stereo partly specified), the IC50 cytotoxicity (DAPI nuclear signal decrease) in the experiment on DAPI (run 1) is greater than 25 µM; in the experiment on DAPI (run 2), 24 µM. Besides, the IC50 was > 25 µM (inactive) in the experiment on TAG (mean of runs), greater than 25 µM in the experiment on TAG (run 1) and greater than 25 µM in the experiment on TAG (run 2).

Consider `CCN(CC)CCNc1ncnc2c1sc1nc(N3CCCC3)c3c(c12)CC(C)(C)OC3`, for which the figures for the IC50 cytotoxicity (DAPI nuclear signal decrease) with DAPI (mean of runs), in the experiment with DAPI (run 1) and with DAPI (run 2) were > 25 µM (inactive), greater than 25 µM and greater than 25 µM, respectively. Also, the IC50 is 18 µM (inactive) with TAG (mean of runs), 16.9 µM with TAG (run 1) and 19.1 µM with TAG (run 2).

Turning to `COC(=O)c1c(NC(=S)NN2CCN(C)CC2)sc2c1CCC(C)C2` (stereo unspecified), the figures for the IC50 cytotoxicity (DAPI nuclear signal decrease) in the experiment on DAPI (mean of runs), with DAPI (run 1) and in the experiment on DAPI (run 2) were 17.8 µM (inactive), 18.5 µM and 17.1 µM, respectively. For the same molecule, the half-inhibitory concentration (IC50) in the experiment with TAG (run 1) is greater than 25 µM; in the experiment with TAG (run 2), 15.1 µM.

As to `CC1(C(=O)NCc2ccco2)Cc2c(-c3cccc(C(F)(F)F)c3)ccnc2O1` (stereo unspecified), the values for the IC50 cytotoxicity (DAPI nuclear signal decrease) with DAPI (mean of runs), in the experiment on DAPI (run 1) and with DAPI (run 2) were > 25 µM (inactive), greater than 25 µM and greater than 25 µM, respectively. For the same molecule, the IC50 was > 25 µM (inactive) with TAG (mean of runs), greater than 25 µM in the experiment with TAG (run 1) and greater than 25 µM in the experiment with TAG (run 2).

Take `Cc1ccccc1OCCNc1cc(N2CC(C)NC(C)C2)ccc1[N+](=O)[O-]` (stereo unspecified): the IC50 cytotoxicity (DAPI nuclear signal decrease) was > 25 µM (inactive) in the experiment on DAPI (mean of runs), greater than 25 µM with DAPI (run 1) and greater than 25 µM in the experiment with DAPI (run 2). In addition, the IC50 in the experiment with TAG (mean of runs) was 13.1 µM; in the experiment on TAG (run 1) it was 14.6 µM; in the experiment with TAG (run 2), 11.6 µM.

Consider `COc1ccc(Nc2nc3cc(-c4sccc4C)sc3c(=O)n2C)cc1OC`, for which the IC50 cytotoxicity (DAPI nuclear signal decrease) in the experiment on DAPI (mean of runs) was > 25 µM (inactive); with DAPI (run 1), greater than 25 µM; with DAPI (run 2), greater than 25 µM. The IC50 in the experiment with TAG (mean of runs) is 16.6 µM (inactive); in the experiment on TAG (run 1), 16.8 µM; in the experiment with TAG (run 2), 16.5 µM.

As to `CCCSc1nc(SCC(=O)NCc2ccccc2)c2c3c(sc2n1)COC(C)(CC)C3` (stereo unspecified), the values for the IC50 cytotoxicity (DAPI nuclear signal decrease) with DAPI (mean of runs), with DAPI (run 1) and in the experiment on DAPI (run 2) were > 25 µM (inactive), greater than 25 µM and greater than 25 µM, respectively. Further, the IC50 was > 25 µM (inactive) in the experiment on TAG (mean of runs), greater than 25 µM in the experiment with TAG (run 1) and greater than 25 µM in the experiment on TAG (run 2).

For the molecule `c1ccc(-c2nc(N3CCOCC3)cc(N3CCOCC3)n2)cc1`, the results for the IC50 cytotoxicity (DAPI nuclear signal decrease) in the experiment with DAPI (mean of runs), in the experiment on DAPI (run 1) and in the experiment on DAPI (run 2) were > 25 µM (inactive), greater than 25 µM and greater than 25 µM, respectively. In addition, the IC50 was 9.99 µM with TAG (mean of runs), 5.81 µM with TAG (run 1) and 14.2 µM in the experiment with TAG (run 2).

As for `O=C(Nc1ccc([N+](=O)[O-])cn1)c1cc(-c2cccc(Cl)c2)nc2ccccc12`, the IC50 cytotoxicity (DAPI nuclear signal decrease) in the experiment with DAPI (run 1) and in the experiment on DAPI (run 2) was greater than 25 µM in each case. Further, the IC50 in the experiment with TAG (mean of runs) was 3.69 µM; in the experiment on TAG (run 1), 3.93 µM; in the experiment with TAG (run 2) it was 3.46 µM.

Take `c1ccc(-c2nc(SCc3nc4ccccc4[nH]3)c3oc4ccccc4c3n2)cc1`: the IC50 cytotoxicity (DAPI nuclear signal decrease) in the experiment with DAPI (mean of runs) was > 25 µM (inactive); in the experiment on DAPI (run 1) it was greater than 25 µM; with DAPI (run 2) it was greater than 25 µM. Further, the IC50 in the experiment with TAG (mean of runs) was 10.5 µM; in the experiment with TAG (run 1) it was 10 µM; in the experiment with TAG (run 2), 11 µM.

On to `N#CC1=C(N)Oc2cc(Nc3ccccc3)ccc2C1c1ccncc1` (stereo unspecified), for which the IC50 cytotoxicity (DAPI nuclear signal decrease) with DAPI (run 1) was 23.2 µM; in the experiment with DAPI (run 2) it was greater than 25 µM. Further, the results for the IC50 with TAG (run 1) and with TAG (run 2) were 19.8 µM and greater than 25 µM, respectively.

In the case of `C=C1c2nc3ccccc3n2C=C(c2ccc(C)cc2)N1c1ccccc1`, the IC50 cytotoxicity (DAPI nuclear signal decrease) in the experiment on DAPI (mean of runs) is > 25 µM (inactive); with DAPI (run 1), greater than 25 µM; in the experiment on DAPI (run 2), greater than 25 µM. Further, the results for the IC50 in the experiment with TAG (mean of runs), with TAG (run 1) and in the experiment on TAG (run 2) were 16.5 µM (inactive), 10.9 µM and 22.2 µM, respectively.

Take `CCCCCCSc1cc(-c2nc3ccc(Cl)cn3c2NC2CCCCC2)ccc1OC`: the IC50 cytotoxicity (DAPI nuclear signal decrease) was > 25 µM (inactive) with DAPI (mean of runs), greater than 25 µM in the experiment on DAPI (run 1) and greater than 25 µM in the experiment with DAPI (run 2). Moreover, the IC50 in the experiment with TAG (mean of runs) was 22.6 µM (inactive); in the experiment with TAG (run 1), 20.4 µM; in the experiment with TAG (run 2), 24.7 µM.

As to `COc1cccc(C2c3cc4c(cc3OC(NNC(N)=O)C2C)OCO4)c1O` (stereo unspecified), the IC50 cytotoxicity (DAPI nuclear signal decrease) was > 25 µM (inactive) in the experiment with DAPI (mean of runs), greater than 25 µM in the experiment with DAPI (run 1) and greater than 25 µM with DAPI (run 2). The IC50 in the experiment on TAG (mean of runs) was > 25 µM (inactive); in the experiment with TAG (run 1) it was greater than 25 µM; in the experiment on TAG (run 2), greater than 25 µM.

On to `COc1cccc2sc(Nc3nc(-c4cc5ccccc5oc4=O)cs3)nc12`, for which the IC50 cytotoxicity (DAPI nuclear signal decrease) with DAPI (mean of runs) was > 25 µM (inactive); with DAPI (run 1), greater than 25 µM; in the experiment on DAPI (run 2) it was greater than 25 µM. For the same molecule, the figures for the half-maximal inhibitory concentration (IC50) in the experiment with TAG (mean of runs), in the experiment with TAG (run 1) and in the experiment on TAG (run 2) were 8.35 µM, 7.33 µM and 9.37 µM, respectively.

On to `CCN(CC)CCC(c1ccc2c(c1)OCO2)c1c(OC)cc(OC)c2c(-c3ccccc3)cc(=O)oc12` (stereo unspecified), for which the IC50 cytotoxicity (DAPI nuclear signal decrease) in the experiment with DAPI (mean of runs) was > 25 µM (inactive); in the experiment with DAPI (run 1), greater than 25 µM; in the experiment with DAPI (run 2) it was greater than 25 µM. Further, the results for the IC50 with TAG (mean of runs), in the experiment with TAG (run 1) and in the experiment on TAG (run 2) were > 25 µM (inactive), greater than 25 µM and greater than 25 µM, respectively.

Take `COc1ccc(Oc2nc(-c3ccccn3)nc3ccccc23)cc1`: the results for the IC50 cytotoxicity (DAPI nuclear signal decrease) with DAPI (mean of runs), in the experiment with DAPI (run 1) and in the experiment with DAPI (run 2) were > 25 µM (inactive), greater than 25 µM and greater than 25 µM, respectively. The IC50 in the experiment on TAG (mean of runs) was > 25 µM (inactive); with TAG (run 1) it was greater than 25 µM; in the experiment on TAG (run 2) it was greater than 25 µM.

As for `COc1cc(-c2nc3c(c(C)nn3-c3ccccc3)c3cc(OC)c(OC)cc23)ccc1O`, the IC50 cytotoxicity (DAPI nuclear signal decrease) in the experiment on DAPI (mean of runs) was > 25 µM (inactive); in the experiment on DAPI (run 1), greater than 25 µM; in the experiment on DAPI (run 2), greater than 25 µM. The values for the IC50 in the experiment with TAG (mean of runs), in the experiment on TAG (run 1) and in the experiment with TAG (run 2) were > 25 µM (inactive), greater than 25 µM and greater than 25 µM, respectively.

On to `O=C(CSc1nc2ccc(Nc3nc(N4CCOCC4)nc(N4CCOCC4)n3)cc2s1)Nc1ccccc1Cl`, for which the IC50 cytotoxicity (DAPI nuclear signal decrease) in the experiment with DAPI (mean of runs) is > 25 µM (inactive); with DAPI (run 1), greater than 25 µM; with DAPI (run 2) it was greater than 25 µM. In addition, the results for the 50% inhibitory concentration (IC50) with TAG (mean of runs), in the experiment on TAG (run 1) and in the experiment on TAG (run 2) were 8.88 µM, 7.69 µM and 10.1 µM, respectively.
